In patent US11766441B2, “Oral liquid compositions including chlorpromazine” (GENUS LIFESCIENCES INC., priority 2020, dated 2023):

How the values were obtained:
[1] = Drug-excipient compatibility: HPLC assay and impurities of 20 mg/ml API/excipient solutions in purified water after storage; type: physicochemical
Description: Common excipients functioning as a solvent, a sweetener, an antioxidant, a chelating agent, a buffer system component, and a preservative were evaluated in the following example for excipient and drug substance compatibility. Compatibility was assessed through high performance liquid chromatography (HPLC) analysis of solutions containing the mixtures of the drug substance and the individual evaluated excipient in purified water. A relatively low concentration (20 mg/ml) of active pharmaceutical ingredient was selected to enhance potential oxidative or hydrolytic degradation of the API in the presence of the excipients. The excipients were used in slight excess to enhance potential interactions. The proportion of excipients was selected such that it was representative of their respective proportions to the API in the finished product.
Additionally, the pH of the solution was also monitored during development to ensure the physical stability of the product.

[2] = pH range of 1 to 12 at ambient temperature; cited from earlier work
[3] = after storage for 1 Month at 25° C./60% RH
[4] = after storage for 1 Month at 40° C./75% RH
[5] = after storage for 15 days at 60° C.

## CN(C)CCCN1c2ccccc2Sc2ccc(Cl)cc21.Cl [Chlorpromazine hydrochloride, 2-chloro-10-[3-(dimethylamino)propyl] phenothiazine hydrochloride]
[1]; 1 M, 25° C./60% RH
  Assay of Chlorpromazine Hydrochloride (% Label Claim): 98.6 % Label Claim
[1]; 1 M, 40° C./75% RH
  Assay of Chlorpromazine Hydrochloride (% Label Claim): 98.7 % Label Claim
[1]; 15 Days, 60° C.
  Assay of Chlorpromazine Hydrochloride (% Label Claim): 100.9 % Label Claim
[1]; T0
  Assay of Chlorpromazine Hydrochloride (% Label Claim): 98.3 % Label Claim
[1]; [3]
  Impurities (%) A: 0.07%
  Impurities (%) C: 0.07%
  Impurities (%) D: 0.03%
  Impurities (%) Total: 0.24%
  Impurities (%) UD (RRT 0.55): 0.02%
  Impurities (%) UD (RRT 0.61): 0.02%
  Impurities (%) UD (RRT 1.42): 0.03%
[1]; [4]
  Impurities (%) A: 0.21%
  Impurities (%) C: 0.07%
  Impurities (%) D: 0.08%
  Impurities (%) Total: 0.44%
  Impurities (%) UD (RRT 0.55): 0.02%
  Impurities (%) UD (RRT 0.61): 0.02%
  Impurities (%) UD (RRT 1.42): 0.03%
[1]; [5]
  Impurities (%) A: 0.55%
  Impurities (%) C: 0.08%
  Impurities (%) D: 0.18%
  Impurities (%) E: 0.02%
  Impurities (%) Total: 1.04%
  Impurities (%) UD (RRT 0.49): 0.02%
  Impurities (%) UD (RRT 0.55): 0.14%
  Impurities (%) UD (RRT 0.61): 0.03%
  Impurities (%) UD (RRT 1.42): 0.03%
[1]; time zero
  Impurities (%) Total: 0.11%
  Impurities (%) UD (RRT 0.82): 0.08%
  Impurities (%) UD (RRT 1.31): 0.03%
[2]
  solubility: greater than 1 g/mL
